What follows are molecules tested on HCC1937 (assay: normalised response (% of control), CellTox Green; higher = less cell death (100 = DMSO, 0 = benzethonium chloride kill control)). Conditions: incubation time: 72 h.
Procedure, shortened: (§1)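 A 20 µl suspension of breast cancer cells was seeded into each well of 384-well plates containing compound at 5 concentrations in 10-fold steps over a compound-specific 10,000-fold range. After 72 h incubation, CellTox Green fluorescence (485/520 nm) was read first, and CellTiter-Glo luminescence was read after 10 min at room temperature. Each plate was normalised against 0.1 % DMSO (100) and a positive kill control (0), and each value is the normalised signal at one concentration.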
In the case of `CN1CCN(CCOc2cc(OC3CCOCC3)c3c(Nc4c(Cl)ccc5c4OCO5)ncnc3c2)CC1` [Saracatinib] (100 nM), the normalised response is reported as 88.4%. `O=C(O)CCCc1ccc(N(CCCl)CCCl)cc1` [Chlorambucil] (100 nM) gave a normalised response of 98.2%. Work on `c1ccc([C@H]2CN3CCSC3=N2)cc1` [Levamisole] (100 nM) yielded a normalised response of 76.8%. Molecule `Cn1cncc1[C@@](N)(c1ccc(Cl)cc1)c1ccc2c(c1)c(-c1cccc(Cl)c1)cc(=O)n2C` [Tipifarnib] (100 nM) has a normalised response of 99.6%. For `CC(C)(C#N)c1cc(Cn2cncn2)cc(C(C)(C)C#N)c1` [Anastrozole] (100 nM), the normalised response was 99.9%. `CN(C)CCN1C(=O)c2cccc3cc(N)cc(c23)C1=O` [Amonafide] (100 nM) showed a normalised response of 104%. With `CNNCc1ccc(C(=O)NC(C)C)cc1` [Procarbazine] (100 nM) the normalised response was 94.1%. In the case of `Nc1ncnc2c1c(COc1cccc(Cl)c1)nn2C1CCOCC1` (100 nM), the normalised response is reported as 112%.

What follows are molecules tested on HDQ-P1 in the same assay as above. Conditions: incubation time: 72 h.
Procedure, shortened: as §1
Work on `CN1CCN(CCOc2cc(OC3CCOCC3)c3c(Nc4c(Cl)ccc5c4OCO5)ncnc3c2)CC1` [Saracatinib] (100 nM) yielded a normalised response of 90.7%. For `O=C(O)CCCc1ccc(N(CCCl)CCCl)cc1` [Chlorambucil] (100 nM), the normalised response was 107%. In the case of `c1ccc([C@H]2CN3CCSC3=N2)cc1` [Levamisole] (100 nM), the normalised response is reported as 102%. `Cn1cncc1[C@@](N)(c1ccc(Cl)cc1)c1ccc2c(c1)c(-c1cccc(Cl)c1)cc(=O)n2C` [Tipifarnib] (100 nM) showed a normalised response of 103%. For `CC(C)(C#N)c1cc(Cn2cncn2)cc(C(C)(C)C#N)c1` [Anastrozole] (100 nM), the normalised response was 97.9%. With `CN(C)CCN1C(=O)c2cccc3cc(N)cc(c23)C1=O` [Amonafide] (100 nM) the normalised response was 81.9%. Molecule `Nc1ncnc2c1c(COc1cccc(Cl)c1)nn2C1CCOCC1` (100 nM) has a normalised response of 102%.

What follows are molecules tested on Hs578T in the same assay as above. Conditions: incubation time: 72 h.
Procedure, shortened: as §1
In the case of `Nc1nc(OCc2cc(Br)cs2)c2[nH]cnc2n1` [Lomeguatrib] (100 nM), the normalised response is reported as 100%. For `O=C(O)CCCc1ccc(N(CCCl)CCCl)cc1` [Chlorambucil] (100 nM), the normalised response was 105%. In the case of `c1ccc([C@H]2CN3CCSC3=N2)cc1` [Levamisole] (100 nM), the normalised response is reported as 76.6%. Molecule `Cn1cncc1[C@@](N)(c1ccc(Cl)cc1)c1ccc2c(c1)c(-c1cccc(Cl)c1)cc(=O)n2C` [Tipifarnib] (100 nM) has a normalised response of 57.8%. Molecule `CC(C)(C#N)c1cc(Cn2cncn2)cc(C(C)(C)C#N)c1` [Anastrozole] (100 nM) has a normalised response of 87%. With `CNNCc1ccc(C(=O)NC(C)C)cc1` [Procarbazine] (100 nM) the normalised response was 63.4%. For `Nc1ncnc2c1c(COc1cccc(Cl)c1)nn2C1CCOCC1` (100 nM), the normalised response was 51.6%.

The molecules below were run on MCF-10A in the same assay as above. Conditions: incubation time: 72 h.
Procedure, shortened: as §1
For `Nc1nc(OCc2cc(Br)cs2)c2[nH]cnc2n1` [Lomeguatrib] (100 nM), the normalised response was 97.3%. For `CN1CCN(CCOc2cc(OC3CCOCC3)c3c(Nc4c(Cl)ccc5c4OCO5)ncnc3c2)CC1` [Saracatinib] (100 nM), the normalised response was 89.4%. `O=C(O)CCCc1ccc(N(CCCl)CCCl)cc1` [Chlorambucil] (100 nM) was tested, and the normalised response was 101%. Work on `c1ccc([C@H]2CN3CCSC3=N2)cc1` [Levamisole] (100 nM) yielded a normalised response of 87.5%. Work on `Cn1cncc1[C@@](N)(c1ccc(Cl)cc1)c1ccc2c(c1)c(-c1cccc(Cl)c1)cc(=O)n2C` [Tipifarnib] (100 nM) yielded a normalised response of 99.7%. Molecule `CC(C)(C#N)c1cc(Cn2cncn2)cc(C(C)(C)C#N)c1` [Anastrozole] (100 nM) has a normalised response of 74.4%. `CN(C)CCN1C(=O)c2cccc3cc(N)cc(c23)C1=O` [Amonafide] (100 nM) was tested, and the normalised response was 103%. `CNNCc1ccc(C(=O)NC(C)C)cc1` [Procarbazine] (100 nM) gave a normalised response of 98.5%. For `Nc1ncnc2c1c(COc1cccc(Cl)c1)nn2C1CCOCC1` (100 nM), the normalised response was 109%.

What follows are molecules tested on MDA-MB-231 in the same assay as above. Conditions: incubation time: 72 h.
Procedure, shortened: as §1
Molecule `Nc1nc(OCc2cc(Br)cs2)c2[nH]cnc2n1` [Lomeguatrib] (100 nM) has a normalised response of 110%. In the case of `CN1CCN(CCOc2cc(OC3CCOCC3)c3c(Nc4c(Cl)ccc5c4OCO5)ncnc3c2)CC1` [Saracatinib] (100 nM), the normalised response is reported as 90.6%. In the case of `O=C(O)CCCc1ccc(N(CCCl)CCCl)cc1` [Chlorambucil] (100 nM), the normalised response is reported as 102%. `CC(C)(C#N)c1cc(Cn2cncn2)cc(C(C)(C)C#N)c1` [Anastrozole] (100 nM) gave a normalised response of 106%. `CN(C)CCN1C(=O)c2cccc3cc(N)cc(c23)C1=O` [Amonafide] (100 nM) gave a normalised response of 81.1%. With `CNNCc1ccc(C(=O)NC(C)C)cc1` [Procarbazine] (100 nM) the normalised response was 119%. `Nc1ncnc2c1c(COc1cccc(Cl)c1)nn2C1CCOCC1` (100 nM) showed a normalised response of 119%.

The molecules below were run on MDA-MB-436 in the same assay as above. Conditions: incubation time: 72 h.
Procedure, shortened: as §1
In the case of `Nc1nc(OCc2cc(Br)cs2)c2[nH]cnc2n1` [Lomeguatrib] (100 nM), the normalised response is reported as 98.3%. Work on `CN1CCN(CCOc2cc(OC3CCOCC3)c3c(Nc4c(Cl)ccc5c4OCO5)ncnc3c2)CC1` [Saracatinib] (100 nM) yielded a normalised response of 97%. In the case of `O=C(O)CCCc1ccc(N(CCCl)CCCl)cc1` [Chlorambucil] (100 nM), the normalised response is reported as 84.8%. Work on `c1ccc([C@H]2CN3CCSC3=N2)cc1` [Levamisole] (100 nM) yielded a normalised response of 99.2%. In the case of `Cn1cncc1[C@@](N)(c1ccc(Cl)cc1)c1ccc2c(c1)c(-c1cccc(Cl)c1)cc(=O)n2C` [Tipifarnib] (100 nM), the normalised response is reported as 20.8%. `CC(C)(C#N)c1cc(Cn2cncn2)cc(C(C)(C)C#N)c1` [Anastrozole] (100 nM) showed a normalised response of 93.3%. `CN(C)CCN1C(=O)c2cccc3cc(N)cc(c23)C1=O` [Amonafide] (100 nM) showed a normalised response of 80.1%. In the case of `CNNCc1ccc(C(=O)NC(C)C)cc1` [Procarbazine] (100 nM), the normalised response is reported as 103%. `Nc1ncnc2c1c(COc1cccc(Cl)c1)nn2C1CCOCC1` (100 nM) showed a normalised response of 102%.

The molecules below were run on MDA-MB-453 in the same assay as above. Conditions: incubation time: 72 h.
Procedure, shortened: as §1
With `Nc1nc(OCc2cc(Br)cs2)c2[nH]cnc2n1` [Lomeguatrib] (100 nM) the normalised response was 106%. `CN1CCN(CCOc2cc(OC3CCOCC3)c3c(Nc4c(Cl)ccc5c4OCO5)ncnc3c2)CC1` [Saracatinib] (100 nM) was tested, and the normalised response was 106%. `O=C(O)CCCc1ccc(N(CCCl)CCCl)cc1` [Chlorambucil] (100 nM) was tested, and the normalised response was 102%. `c1ccc([C@H]2CN3CCSC3=N2)cc1` [Levamisole] (100 nM) gave a normalised response of 101%. `Cn1cncc1[C@@](N)(c1ccc(Cl)cc1)c1ccc2c(c1)c(-c1cccc(Cl)c1)cc(=O)n2C` [Tipifarnib] (100 nM) gave a normalised response of 98.7%. With `CC(C)(C#N)c1cc(Cn2cncn2)cc(C(C)(C)C#N)c1` [Anastrozole] (100 nM) the normalised response was 102%. With `CN(C)CCN1C(=O)c2cccc3cc(N)cc(c23)C1=O` [Amonafide] (100 nM) the normalised response was 104%. In the case of `CNNCc1ccc(C(=O)NC(C)C)cc1` [Procarbazine] (100 nM), the normalised response is reported as 106%. `Nc1ncnc2c1c(COc1cccc(Cl)c1)nn2C1CCOCC1` (100 nM) showed a normalised response of 111%.

What follows are molecules tested on MDA-MB-468 in the same assay as above. Conditions: incubation time: 72 h.
Procedure, shortened: as §1
In the case of `Nc1nc(OCc2cc(Br)cs2)c2[nH]cnc2n1` [Lomeguatrib] (100 nM), the normalised response is reported as 134%. `O=C(O)CCCc1ccc(N(CCCl)CCCl)cc1` [Chlorambucil] (100 nM) was tested, and the normalised response was 118%. For `c1ccc([C@H]2CN3CCSC3=N2)cc1` [Levamisole] (100 nM), the normalised response was 120%. `Cn1cncc1[C@@](N)(c1ccc(Cl)cc1)c1ccc2c(c1)c(-c1cccc(Cl)c1)cc(=O)n2C` [Tipifarnib] (100 nM) was tested, and the normalised response was 118%. For `CN(C)CCN1C(=O)c2cccc3cc(N)cc(c23)C1=O` [Amonafide] (100 nM), the normalised response was 144%. Molecule `CNNCc1ccc(C(=O)NC(C)C)cc1` [Procarbazine] (100 nM) has a normalised response of 95.5%.

What follows are molecules tested on MFM-223 in the same assay as above. Conditions: incubation time: 72 h.
Procedure, shortened: as §1
`Nc1nc(OCc2cc(Br)cs2)c2[nH]cnc2n1` [Lomeguatrib] (100 nM) gave a normalised response of 103%. `O=C(O)CCCc1ccc(N(CCCl)CCCl)cc1` [Chlorambucil] (100 nM) gave a normalised response of 98.8%. Molecule `c1ccc([C@H]2CN3CCSC3=N2)cc1` [Levamisole] (100 nM) has a normalised response of 106%. `Cn1cncc1[C@@](N)(c1ccc(Cl)cc1)c1ccc2c(c1)c(-c1cccc(Cl)c1)cc(=O)n2C` [Tipifarnib] (100 nM) showed a normalised response of 99.9%. Molecule `CC(C)(C#N)c1cc(Cn2cncn2)cc(C(C)(C)C#N)c1` [Anastrozole] (100 nM) has a normalised response of 100%. `CN(C)CCN1C(=O)c2cccc3cc(N)cc(c23)C1=O` [Amonafide] (100 nM) showed a normalised response of 106%. Work on `Nc1ncnc2c1c(COc1cccc(Cl)c1)nn2C1CCOCC1` (100 nM) yielded a normalised response of 103%.

What follows are molecules tested on BT-474 (assay: normalised response (% of control), CellTiter-Glo; higher = more viable cells (100 = DMSO, 0 = benzethonium chloride kill control)). Conditions: incubation time: 72 h.
Experimental: (§2)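 DSRT, 72 h incubation, CellTox Green / CellTiter-Glo readout. Signal is normalised to DMSO and benzethonium chloride controls. Value is the normalised response at dose 3.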
`Nc1nc(OCc2cc(Br)cs2)c2[nH]cnc2n1` [Lomeguatrib] (100 nM) showed a normalised response of 98.8%. Molecule `CN1CCN(CCOc2cc(OC3CCOCC3)c3c(Nc4c(Cl)ccc5c4OCO5)ncnc3c2)CC1` [Saracatinib] (100 nM) has a normalised response of 84.4%. Molecule `O=C(O)CCCc1ccc(N(CCCl)CCCl)cc1` [Chlorambucil] (100 nM) has a normalised response of 98.7%. Molecule `c1ccc([C@H]2CN3CCSC3=N2)cc1` [Levamisole] (100 nM) has a normalised response of 106%. `Cn1cncc1[C@@](N)(c1ccc(Cl)cc1)c1ccc2c(c1)c(-c1cccc(Cl)c1)cc(=O)n2C` [Tipifarnib] (100 nM) was tested, and the normalised response was 87.6%. With `CC(C)(C#N)c1cc(Cn2cncn2)cc(C(C)(C)C#N)c1` [Anastrozole] (100 nM) the normalised response was 104%. `CN(C)CCN1C(=O)c2cccc3cc(N)cc(c23)C1=O` [Amonafide] (100 nM) showed a normalised response of 106%. `CNNCc1ccc(C(=O)NC(C)C)cc1` [Procarbazine] (100 nM) showed a normalised response of 100%. `Nc1ncnc2c1c(COc1cccc(Cl)c1)nn2C1CCOCC1` (100 nM) gave a normalised response of 102%.

The molecules below were run on BT-549 in the same assay as above. Conditions: incubation time: 72 h.
Experimental: as §2
Molecule `Nc1nc(OCc2cc(Br)cs2)c2[nH]cnc2n1` [Lomeguatrib] (100 nM) has a normalised response of 99.2%. `CN1CCN(CCOc2cc(OC3CCOCC3)c3c(Nc4c(Cl)ccc5c4OCO5)ncnc3c2)CC1` [Saracatinib] (100 nM) gave a normalised response of 104%.

Source: the supplement of paper PMC4862054
